The text below walks through data of patent US9012190B2, “Use of thiamine and nicotine adenine dinucleotide for butanol production” (Butamax Advanced Biofuels LLC, priority 2011, dated 2015).

Assay [1] deals with isobutanol producing NYLA84 strain. In words: Shake flask fermentation with addition of thiamine or yeast extract (Example 1). In kind it is cell-based, Saccharomyces cerevisiae. Here is the method: The medium contained the following ingredients per L of water: 6.7 g Yeast Nitrogen Base (YNB) w/o amino acids (Difco 0919-15-3); 2.8 g Yeast Synthetic Drop-out Medium Supplement Without histidine, leucine, tryptophan, and uracil (Sigma Y2001); 20 mL of 1% (w/v) L-leucine; 4 mL of 1% (w/v) L-tryptophan; 5 g ethanol; 3 g glucose; and 1.0 mL of the ergosterol and Tween 80. In order to obtain 10 mL ergosterol and Tween 80 solution, 100 mg of ergosterol were dissolved in 5 mL 100% EtOH and 5 mL Tween 80 and then heated until sterile and dissolved (10 min at 70° C.).
In the shake flask experiments described, the following were added to 125 mL shake flasks: 16 mL of the culture broth; 2 mL of the 1 M MES buffer; and 2 mL of the addition (H2O, YE, TH). The following additions were prepared: yeast extract (YE, final concentration 10 g/L); thiamine (TH, final concentration 6, 60, and 100 mg/L).
In order to provide the culture broth, seed cultures were started in 125 mL shake flasks with air permeable lids (10 mL medium inoculated with 1 mL inoculum from a frozen vial). […] The OD was measured at λ=600 nm (Spectrophotometer from Thermo Electron Corporation Heλios Alpha, USA). […] Ergosterol and Tween 80 was added to the medium to a final concentration of 1 mL/L. Seed (10 mL) was inoculated into 2 L shake flask with 135 mL of the medium. Separately, 2 mL of the H2O, YE, TH additions were added to new 125 ml shake flasks. Into the 2 L shake flask, 16 mL of 1 M MES buffer was added and 5.3 mL of 50% (w/w) glucose solution. Eighteen (18) mL of this culture broth was distributed into the 125 mL shake flasks with prepared additions. The aerobic shake flasks with air permeable lid were incubated at 30° C. and 260 rpm. The anaerobic shake flasks were treated in anaerobic hood and incubated at 30° C. and 260 rpm. The anaerobic shake flasks were sampled in the anaerobic hood.
The effect of thiamine on isobutanol production was analyzed using shake flask fermentation. Shake flask fermentations were performed under both aerobic and anaerobic conditions in the presence of water (negative control), yeast extract (YE, positive control, final concentration 10 g/L), or thiamine (TH, final concentration 100 mg/L) with isobutanol producing NYLA84 strain. The final biomass (X), isobutanol concentrations, and specific isobutanol production rates (qP) were measured and are shown in FIG. 1.

For assay [2] the test system is unchanged. In words: Shake flask cultivations with nicotinic acid, vitamin solution or YEP (Example 6). The format is cell-based, Saccharomyces cerevisiae. Here is the method:
(§1) The aerobic shake flasks with air permeable lid were incubated at 30° C. and 260 rpm.

Assay [3] deals with isobutanol producing NYLA 84 strain. Description: Aerobic shake flask range finding with nicotinic acid (Example 7). In kind it is cell-based, Saccharomyces cerevisiae. The following applies: NA concentrations as low as 6 mg/L, all measurement points (2.00 h, 18.75 h, 24.5 h). As to the method: The strain used in this Example was the isobutanol producing NYLA 84 strain, described elsewhere herein. Vitamin stock solution contained biotin, 50 mg/L; Ca-panthotenate, 1 g/L; nicotinic acid, 1 g/L; myo-inositol, 25 g/l; thiamine.HCl, 1 g/L; pyridoxine hydrochloride, 1 g/L; p-aminobenzoic acid, 0.2 g/L; riboflavin, 0.2 g/L; and folic acid, 2 mg/L. One liter (1 L) of ergosterol and Tween 80 stock solution contains 10 g of ergosterol dissolved in 500 mL 100% ethanol solution and 500 mL Tween 80.
Glucose and fermentation by-product analysis were determined by a Waters HPLC utilizing a Bio-Rad Aminex HPX-87H column with diode array (DA) operated at 210 nm and a refractive index (RI) detector at 50° C.
Several seed cultures inoculated each with a 1 mL glycerol frozen stock vial were grown in 10 mL base medium for 24 h. At the start of the range finding experiment, seed cultures were pooled and 16 mL each of the pooled seed culture were distributed into 125 mL shake flasks, 2 mL of 1 M MES buffer added, and additionally 2 mL of (a) bidestilled water, (b-d) nicotinic acid (NA) stock solutions with 60 mg/L, 600 mg/L and 1000 mg/L of NA dissolved in bidestilled water, respectively, and (e) YE stock solution with 200 g/l YE. The aerobic shake flasks with air permeable lid were incubated at 30° C. and 260 rpm. Initial OD at λ=600 nm in the cultures was 0.764.

Assay [4] deals with isobutanol producing NYLA84 strain. In words: Shake flask cultivations with nicotinic acid, vitamin solution or YEP (Example 8). In kind it is cell-based, Saccharomyces cerevisiae. Here is the method: as §1
In assay [5] the test system is BP1063 isobutanol producing strain. The following applies: bioreactor; NA concentrations of as low as 5 mg/L; vs water control.
Protocol: One liter (1 L) of inoculum medium contained: 6.7 g, Yeast Nitrogen Base w/o amino acids (Difco 0919-15-3); 2.8 g, Yeast Synthetic Drop-out Medium Supplement Without histidine, leucine, tryptophan and uracil (Sigma Y2001); 20 mL of 1% (w/v) L-leucine; 4 mL of 1% (w/v) L-tryptophan; 1 mL of ergosterol and Tween 80 solution; 3 g of ethanol; 3 g of glucose. Preparation of ergosterol and Tween 80 solution: for 10 mL of the solution, 100 mg of ergosterol was dissolve in 5 mL 100% EtOH and 5 mL Tween 80. It was heated at 70° C. for 10 minutes.
A 125 mL shake flask was inoculated directly from a frozen vial by pipetting the whole vial culture (approx. 1 ml) into 10 mL of the inoculum medium. The flask was incubated at 260 rpm and 30° C. The strain was grown overnight until OD about 1.0. At this point four 2 L baffled shake flasks with 90 mL of the inoculum medium were inoculated from the overnight culture. […]
OD at λ=600 nm was determined in a HEλIOS a spectrophotometer (Thermo Electron Corporation, USA). […] Glucose and fermentation by-product analysis were determined by HPLC utilizing a Shodex® SH-1011 column with a Shodex® SH-G guard column (both available from Waters Corporation, Milford, Mass.), with diode array (DA) and refractive index (RI) detector. […]
Isobutanol was measured in oleyl alcohol, culture broth, and off-gas samples by GC method, HPLC method, and mass-spectrometry, respectively.
Setting [6] is: aerobic shake flasks, thiamine 100 mg/L.
[7] abbreviates: aerobic (25.8 h) and anaerobic (24.2 h) shake flasks.
[8] abbreviates: isobutanol, glucose consumption, biomass.
The mark [9] stands for this setting: aerobic and anaerobic shake flasks, sampled after 6.3 and 20.8 h.

Regarding `Cc1ncc(C[n+]2csc(CCO)c2C)c(N)n1` [thiamine], the “initial qP compared with yeast extract” value in assay [1] (aerobic flasks, thiamine 100 mg/L vs yeast extract 10 g/L) is “about the same as achieved with yeast extract”. Besides, the “initial qP higher than the control” value in assay [1] (aerobic flasks, thiamine 100 mg/L, vs water control) is reported as 75%. Moreover, the “initial qP (specific isobutanol production rate)” value in assay [1] (aerobic flasks, thiamine final concentration 100 mg/L, first 24 fermentation hours) turned out to be 0.14 g/g/h. For the same compound, the “accumulation of keto-isovaleric acid in control shake flasks compared to flasks with the addition” value in assay [1] (aerobic shake flasks) is “several times higher”. In assay [1] (aerobic shake flasks, final concentrations of 6, 60, and 100 mg/L thiamine), the “isobutanol titers at the three concentrations” value was “similar”. In assay [1] (setting [6]), the “final biomass concentration compared to the control” value is “higher” and the “titers of isobutanol compared to the control” value is listed as “higher”.
Consider `O=C(O)c1cccnc1` [NA, nicotinic acid], for which, in assay [2] (setting [7]), the “biomass formation compared to the negative control” value was “increased”, the “consumption of glucose compared to the negative control” value is reported as “increased” and the “isobutanol production compared to the negative control” value is recorded as “increased”. In addition, in assay [2] (setting [8]), the “increase under anaerobic versus aerobic conditions” value is listed as “significantly more pronounced under anaerobic than under aerobic conditions”. Moreover, in assay [3], the “biomass titers compared to control culture without NA” value is given as “significantly increased” and the “isobutanol titers compared to control culture without NA” value was “significantly increased”. For the same compound, in assay [4] (setting [9]), the “biomass formation compared to the negative control” value was “increased”, the “consumption of glucose compared to the negative control” value is on record as “increased” and the “isobutanol production compared to the negative control” value is given as “increased”. Moreover, the “increase under anaerobic versus aerobic conditions” value in assay [4] (setting [8]) is “significantly more pronounced under anaerobic than under aerobic conditions”. The “final isobutanol titers in the aqueous phase” value in assay [5] is reported as “improved”.
